In patent US20230406843A1, “Progranulin Modulators and Methods of Using the Same” (ARKUDA THERAPEUTICS, priority 2020, published 2023) one finds EC50 data, which are given here for 49 compounds.

Structures are written as SMILES. pEC50: −log10 of the molar value.

The subject of this assay is progranulin. The experiment in a line: Progranulin induction cellular assay (ELISA of secreted mouse PGRN). Particulars: progranulin induction assay; mouse pMG, primary cortical neurons and BV-2 cell lines named, cell type not given; ELISA-based readout; read-out: EC50. It is filed as cell-based. Here is the method:
Cellular Assays: Progranulin induction assay. To measure the efficacy of compounds, a progranulin induction cellular assay in mouse primary microglia (pMG), primary cortical neurons, and BV-2 cell lines is used. BV-2 cells are split the day before plating into a 96 well plate format at approximately 80%. Cells should be plated the day before and allowed for 1 hour attachment period and for 16 hour incubation. Levels of progranulin secreted into the cell culture medium or retained in the cell lysate can be quantified using an ELISA-based readout and measurement of secreted mouse PGRN in the medium was assessed by the methodology published by Ghidoni et al. 2012. Standard ELISA kits to measure PGRN are available from vendors such as Adipogen, R&D, and Biovendor.
Table B below presents the results of a progranulin induction assay as described above.
Turning to `NCC1COC(C(=O)N2CCc3ccccc3[C@@H]2c2ccc(F)cc2)C1` (mixture of isomers) [Compound 5014, ((2R)-4-(aminomethyl)tetrahydrofuran-2-yl)((S)-1-(4-fluorophenyl)-3,4-dihydroisoquinolin-2(1H)-yl)methanone], the pEC50 was 6.30. With `NC[C@@]1(O)COC(C(=O)N2CCc3ccccc3[C@@H]2c2ccc(F)cc2)C1` (single isomer, unassigned) [Compound 5004], the pEC50 was 6.79.

Turning to `NC[C@]1(O)COC(C(=O)N2CCc3ccccc3[C@@H]2c2ccc(F)cc2)C1` (single isomer, unassigned) [Compound 5005], the pEC50 was 6.67. The same measure for `NCC1(O)COC(C(=O)N2CCc3ccccc3[C@@H]2c2ccc(F)cc2)C1` (single isomer, unassigned) [Compound 5006]: 6.84; for `NCC1(O)COC(C(=O)N2CCc3ccccc3[C@@H]2c2ccc(F)cc2)C1` (single isomer, unassigned) [Compound 5007]: 6.85. The result for `N[C@H]1CC[C@@H](C(=O)N2CCc3ccccc3[C@@H]2c2ccc(F)cc2)OC1` (single isomer, unassigned) [Compound 5016] reads 6.70; that for `N[C@@H]1CC[C@H](C(=O)N2CCc3ccccc3[C@@H]2c2ccc(F)cc2)OC1` (single isomer, unassigned) [Compound 5017], 7.04.

On to `N[C@@H]1CC[C@@H](C(=O)N2CCc3ccccc3[C@H]2c2ccc(F)cc2F)OC1` (single isomer, unassigned) [Compound 5019], for which the pEC50 is 7.00.

Consider `N[C@]12CC[C@](C(=O)N3CCc4ccccc4[C@@H]3c3ccc(F)cc3)(C1)OC2` (single isomer, unassigned) [Compound 5021], for which the pEC50 was 6.83. The same measure for `N[C@]12CC[C@](C(=O)N3CCc4ccccc4[C@H]3c3ccc(F)cc3)(C1)OC2` (single isomer, unassigned) [Compound 5023]: 6.67; for `N[C@H]1CCO[C@H](C(=O)N2CCc3ccccc3[C@@H]2c2ccc(F)cc2)C1` (single isomer, unassigned) [Compound 5027]: 6.31. The result for `N[C@@H]1CCO[C@@H](C(=O)N2CCc3ccccc3[C@@H]2c2ccc(F)cc2)C1` (single isomer, unassigned) [Compound 5028] reads 7.38. The result for `O=C([C@@H]1C[C@@](O)(CNCCO)CO1)N1CCc2ccccc2[C@@H]1c1ccc(F)cc1` (single isomer, unassigned) [Compound 5038] reads 6.30; that for `O=C([C@@H]1C[C@](O)(CNCCO)CO1)N1CCc2ccccc2[C@@H]1c1ccc(F)cc1` (single isomer, unassigned) [Compound 5039], 6.45; that for `O=C([C@H]1C[C@@](O)(CNCCO)CO1)N1CCc2ccccc2[C@@H]1c1ccc(F)cc1` (single isomer, unassigned) [Compound 5040], 6.76. For `O=C([C@H]1CCNCCO1)N1CCc2ccccc2[C@@H]1c1ccc(F)cc1` (single isomer, unassigned) [Compound 5044], the pEC50 is 6.79. The same measure for `O=C([C@@H]1CCNCCO1)N1CCc2ccccc2[C@@H]1c1ccc(F)cc1` (single isomer, unassigned) [Compound 5045]: 7.11. The result for `NC[C@]1(O)CC[C@@H](C(=O)N2CCc3ccccc3[C@@H]2c2ccc(F)cc2)OC1` (single isomer, unassigned) [Compound 5046] reads 7.21; that for `NC[C@@]1(O)CC[C@@H](C(=O)N2CCc3ccccc3[C@@H]2c2ccc(F)cc2)OC1` (single isomer, unassigned) [Compound 5047], 7.07. The same measure for `O=C([C@@H]1C[C@@H](NCCO)CO1)N1CCc2ccccc2[C@@H]1c1ccc(F)cc1` (single isomer, unassigned) [Compound 5066]: 6.02. For the compound `O=C([C@@H]1C[C@H](NCCO)CO1)N1CCc2ccccc2[C@@H]1c1ccc(F)cc1` (single isomer, unassigned) [Compound 5067], the pEC50 is 6.12. The same measure for `N[C@@]1(CO)CO[C@@H](C(=O)N2CCc3ccccc3[C@@H]2c2ccc(F)cc2)C1` (single isomer, unassigned) [Compound 5071]: 6.60; for `N[C@H]1CCO[C@@H](C(=O)N2CCc3ccccc3[C@@H]2c2ccc(F)cc2)C1` (single isomer, unassigned) [Compound 5080]: 6.78; for `N[C@@H]1CCO[C@H](C(=O)N2CCc3ccccc3[C@@H]2c2ccc(F)cc2)C1` (single isomer, unassigned) [Compound 5081]: 6.73. The same measure for `CO[C@H]1C[C@H](C(=O)N2CCc3ccccc3[C@@H]2c2ccc(F)cc2)OC[C@H]1N` (single isomer, unassigned) [Compound 5082]: 7.36; for `O=C([C@H]1CNCCCO1)N1CCc2ccccc2[C@@H]1c1ccc(F)cc1` (single isomer, unassigned) [Compound 5090]: 6.79. The result for `O=C([C@@H]1CNCCCO1)N1CCc2ccccc2[C@@H]1c1ccc(F)cc1` (single isomer, unassigned) [Compound 5091] reads 6.39; that for `C[C@]1(C(=O)N2CCc3ccccc3[C@@H]2c2ccc(F)cc2)C[C@@H](N)CCO1` (single isomer, unassigned) [Compound 5235], 6.43; that for `C[C@]1(C(=O)N2CCc3ccccc3[C@@H]2c2ccc(F)cc2)C[C@H](N)CCO1` (single isomer, unassigned) [Compound 5236], 6.41.

Take `C[C@@]1(C(=O)N2CCc3ccccc3[C@@H]2c2ccc(F)cc2)C[C@H](N)CCO1` (single isomer, unassigned) [Compound 5237]: the pEC50 is 6.18. The result for `C[C@@]1(C(=O)N2CCc3ccccc3[C@@H]2c2ccc(F)cc2)C[C@@H](N)CCO1` (single isomer, unassigned) [Compound 5238] reads 6.98.

Take `O=C([C@H]1OCCNC[C@H]1O)N1CCc2ccccc2[C@@H]1c1ccc(F)cc1` (single isomer, unassigned) [Compound 5246]: the pEC50 is 7.00. The result for `O=C([C@H]1CCNCCO1)N1CCc2ccccc2[C@@H]1c1ccc(F)cc1F` (single isomer, unassigned) [Compound 5263] reads 7.11; that for `O=C([C@@H]1CCNCCO1)N1CCc2ccccc2[C@@H]1c1ccc(F)cc1F` (single isomer, unassigned) [Compound 5264], 7.32; that for `O=C([C@@H]1OCCNC[C@@H]1F)N1CCc2ccccc2[C@@H]1c1ccc(F)cc1` (single isomer, unassigned) [Compound 5418], 6.45. With `O=C([C@H]1C[C@@H]2NCCS[C@H]2CO1)N1CCc2ccccc2[C@@H]1c1ccc(F)cc1` (single isomer, unassigned) [Compound 5534], the pEC50 was 7.82. On to `O=C([C@H]1C[C@@H]2NCC(CO)O[C@H]2CO1)N1CCc2ccccc2[C@@H]1c1ccc(F)cc1` (single isomer, unassigned) [Compound 5535], for which the pEC50 is 7.55. The result for `CC(=O)N1CCN[C@H]2C[C@H](C(=O)N3CCc4ccccc4[C@@H]3c3ccc(F)cc3)OC[C@@H]21` (single isomer, unassigned) [Compound 5543] reads 8.52; that for `CCC(=O)N1CCN[C@H]2C[C@H](C(=O)N3CCc4ccccc4[C@@H]3c3ccc(F)cc3)OC[C@@H]21` (single isomer, unassigned) [Compound 5544], 7.72. The same measure for `O=C([C@H]1C[C@@H]2NCCN(CC(F)(F)F)[C@H]2CO1)N1CCc2ccccc2[C@@H]1c1ccc(F)cc1` (single isomer, unassigned) [Compound 5545]: 8.40. The result for `C[S@@+2]([NH-])([O-])[C@H]1CO[C@@H](C(=O)N2CCc3ccccc3[C@@H]2c2ccc(F)cc2)C[C@@H]1N` (single isomer, unassigned) [Compound 5547] reads 7.21; that for `C[S@](=N)(=O)[C@H]1CO[C@@H](C(=O)N2CCc3ccccc3[C@@H]2c2ccc(F)cc2)C[C@@H]1N` (single isomer, unassigned) [Compound 5548], 7.15. For the compound `CC[S@@+2]([NH-])([O-])[C@H]1CO[C@@H](C(=O)N2CCc3ccccc3[C@@H]2c2ccc(F)cc2)C[C@@H]1N` (single isomer, unassigned) [Compound 5549], the pEC50 was 7.52.

For the compound `CC[S@](=N)(=O)[C@H]1CO[C@@H](C(=O)N2CCc3ccccc3[C@@H]2c2ccc(F)cc2)C[C@@H]1N` (single isomer, unassigned) [Compound 5550], the pEC50 was 7.77. The same measure for `CC[S@+2]([O-])([N-]C)[C@H]1CO[C@@H](C(=O)N2CCc3ccccc3[C@@H]2c2ccc(F)cc2)C[C@@H]1N` (single isomer, unassigned) [Compound 5551]: 7.57; for `CC[S@@](=O)(=NC)[C@H]1CO[C@@H](C(=O)N2CCc3ccccc3[C@@H]2c2ccc(F)cc2)C[C@@H]1N` (single isomer, unassigned) [Compound 5552]: 7.96; for `N=[S@]1(=O)CCN[C@H]2C[C@H](C(=O)N3CCc4ccccc4[C@@H]3c3ccc(F)cc3)OC[C@@H]21` (single isomer, unassigned) [Compound 5554]: 5.31. With `C[N-][S@@+2](C)([O-])[C@H]1CO[C@@H](C(=O)N2CCc3ccccc3[C@@H]2c2ccc(F)cc2)C[C@@H]1N` (single isomer, unassigned) [Compound 5555], the pEC50 is 7.54. The same measure for `C[N-][S@+2](C)([O-])[C@H]1CO[C@@H](C(=O)N2CCc3ccccc3[C@@H]2c2ccc(F)cc2)C[C@@H]1N` (single isomer, unassigned) [Compound 5556]: 7.15.
